Results reported in publication PMC7230911, “Meroterpenoids from the Brown Alga Cystoseira usneoides as Potential Anti-Inflammatory and Lung Anticancer Agents” (Marine Drugs, 2020).

Legend:
[1] = tested on: human fetal lung fibroblastic MRC-5 cells; test: Cytotoxicity against normal lung cells MRC-5 (MTT assay); type: cell-based; conditions: Homo sapiens, MRC5, 72 h of treatment, mean ± SE
Protocol: (§1) The effect of the AMTs 1–8 on cell viability was investigated in the human lung cancer cell line A549. […] It has been reported that compounds with SI value higher or equal to 2.0 are potentially selective. […] It is worth noting that after treatment with 50 μg/mL of these two AMTs, the cell viability was lower than 15% for cancer cells and higher than 55% for normal cells.
(§2) Figure 4 Effects of different concentrations of meroterpenoids 1–8 on the viability of human lung cancer cell line A549 and the human fetal lung fibroblastic MRC-5 cells, using MTT assay after 72 h of treatment. Data are mean ±SE of three independent experiments. * p < 0.05, ** p < 0.01 and […] between the two cell lines.
(§3) Cell proliferation was evaluated by a modified MTT assay, which measures the mitochondrial dehydrogenase activity. A total of 5 × 10^3 cells/well (MRC-5 cells) and 3 × 10^3 cells/well (A549 cells) were cultured in a 96-well plate for 24 h. Then, treatments were added to the cell culture. After 72 h of incubation, the medium was removed and 125 µL of MTT (1 mg/mL in medium) was added to each well and incubated for 4 h. Next, 80 µL of 20% sodium dodecyl sulphate (SDS) was added and incubated for 5 h at 37 °C. The optical density of each well was measured at 540 nm (Synergy HT multiwell plate spectrophotometer reader, BioTek Instruments Inc., Winooski, VT, USA) to quantify cell viability. Cell viability (%) was calculated according to the following formula: % viability = (absorbance of compounds treated cells/absorbance of control cells) × 100. The degree of selectivity of the compounds was expressed by its SI value. Each SI value was calculated using the formula: SI = IC50 normal cell/IC50 cancer cell.

A549 cells = test: Cell cycle analysis of A549 cells by flow cytometry; type: cell-based, human; conditions: IC50 concentration, 24 h; for cells at S phase: control 4.99%; for cells at G2/M phase: control 14.06%
Protocol: We next investigated whether the treatment with AMTs 1–8 caused any cell cycle-related event, which inhibit the viability of A549 cell line. Thus, the cells were treated for 24 h with the AMTs at concentrations of IC50 (Table 1), or with colchicine (at 0.2 μg/mL) as the positive control, and then subjected to flow cytometry analysis to evaluate the distribution of cells in the different phases of the cell cycle (Figure 5A).
Figure 5 Effects of meroterpenoids 1–8 on cell cycle distribution of A549 cells. Cells were incubated with IC50 doses of the compounds for 24 h. (A) Cells were harvested to measure the cell cycle distribution by flow cytometry. (B) Quantitative analysis of cell cycle distribution after treatment. Data represent mean ±SE from three independent experiments. * p < 0.05, ** p < 0.01, and *** p < 0.001 compared with the untreated group (control).
For cell cycle analysis by flow cytometry, A549 cells were seeded at 1 × 10^6 cells/well in 6-well plates and incubated for 24 h followed by treatment with the AMTs, at concentration of IC50, and further incubation for 24 h. Colchicine (final concentration of 0.2 μg/mL) was used as positive control. Cells were harvested after trypsinization and washed once with PBS. Then, the cells were centrifuged at 1500 rpm for 5 min (25 °C), the pellet was fixed with 1 mL of ice-cold 70% ethanol, and the samples were stored at −4 °C overnight. Then the cells were washed with PBS and incubated in the darkness with PBS containing 5 mg/mL of RNase A for 48 h at 4 °C. Subsequently, 50 µL of propidium iodide (0.1 mg/mL) was added and the cells were incubated for 1 h at 4 °C. The relative DNA content per cell was analyzed using a Beckman Coulter Cytomics FC 500 MPL (Beckman Coulter Inc, San Diego, CA, USA). The data acquisition was performed with the DML program. The analysis of the acquired data was performed with the CXP cytometer.

[2] = Cytotoxicity against normal lung cells MRC-5 (MTT assay); type: cell-based, human; conditions: human, MRC-5 fetal lung fibroblast cells, 50 μg/mL, 72 h, read-out: cell viability of normal cells
Protocol: as §1, §2, §3

For COc1c(C)cc(O)cc1C/C=C(\C)CC(=O)/C=C(/C)CCCC(C)(O)C(=O)/C=C/C(C)(C)O (stereo not shown) [Compound 1, usneoidone Z], the IC50 [1] was 10.6 ± 0.5 µg/mL, the “cells at S phase” value (A549 cells) was 17.75% and the “cells at G2/M phase” value (A549 cells) was 31.15%.

With COc1c(C)cc(O)cc1C/C=C(\C)CC(=O)/C=C(\C)CCCC(C)(O)C(=O)/C=C/C(C)(C)O (stereo not shown) [Compound 2, 11-hydroxy-1’-O-methylamentadione] the IC50 [1] was 8.65 ± 0.18 µg/mL, the “cells at S phase” value (A549 cells) was 17.90% and the “cells at G2/M phase” value (A549 cells) was 31.62%.

Work on COc1c(C)cc(O)cc1C/C=C(\C)CC(=O)/C=C(\C)CCCC(C)=O [Compound 3, cystomexicone B] yielded a viability at 72 h, 50 µg/mL [2] of over 55% and an IC50 [1] of 51.9 ± 2.76 µg/mL.

COc1c(C)cc(O)cc1C/C=C(\C)CC(=O)/C=C(/C)CCCC(C)=O [Compound 4, cystomexicone A] gave a viability at 72 h, 50 µg/mL [2] of over 55% and an IC50 [1] of 58.4 ± 3.3 µg/mL.

In the case of COc1c(C)cc(O)cc1C/C=C(\C)CC(=O)/C=C(/C)CCCC(C)C(=O)/C=C/C(C)(C)O (stereo not drawn) [Compound 5, 6-cis-amentadione-1′-methyl ether], the IC50 [1] is reported as 8.39 ± 0.14 µg/mL.

COc1c(C)cc(O)cc1C/C=C(\C)CC(=O)/C=C(\C)CCCC(C)C(=O)/C=C/C(C)(C)O (stereo not shown) [Compound 6, amentadione-1′-methyl ether] gave an IC50 [1] of 8.87 ± 0.05 µg/mL.

In the case of COc1c(C)cc(O)cc1/C=C/C(C)(O)CC(=O)/C=C(/C)CCCC(C)C(=O)/C=C/C(C)(C)O (stereo not shown) [Compound 7, cystodione A], the IC50 [1] is reported as 14.5 ± 1.14 µg/mL, the “cells at S phase” value (A549 cells) is reported as 13.69% and the “cells at G2/M phase” value (A549 cells) is reported as 40.19%. The “cells at G0/G1 phase” value (A549 cells; control 71.40%) was 49.31%.

With COc1c(C)cc(O)cc1/C=C/C(C)(O)CC(=O)/C=C(\C)CCCC(C)C(=O)/C=C/C(C)(C)O (stereo not shown) [Compound 8, cystodione B] the IC50 [1] was 17.83 ± 0.09 µg/mL, the “cells at S phase” value (A549 cells) was 16.73% and the “cells at G2/M phase” value (A549 cells) was 32.50%.
